The results in this text go back to patent publication US9895346B2, “Applications of substituent benzyloxy group containing ether compounds for preparing antitumor drugs” (Sinochem Corporation, priority 2013, dated 2018).

Experiment [1] relates to lung cancer cell line H460. The experiment in a line: In vitro cell inhibition assay (crystal violet), lung cancer H460. In kind it is cell-based, human. From the text: (§1) In vitro Cell inhibition assay is as follows:
(§2) The human cancer cell lines used for this assay were bladder cancer J82, T24, prostate cancer LNCap, PC-3, lung cancer A549, H157, H460, H520, colon cancer HCT8, HCT116, RkO, and leukemia HL-60, etc.
(§3) In vitro cell culture technology was selected for the determination of inhibition rate bladder cancer cell lines J82 and T24, prostate cancer cell lines LNCap and PC-3, lung cancer cell lines A549, H157, H460 and H520. 1000 to 3000 cells were inoculated to 24-well plate, followed by addition of 1 mL culture medium well known to researchers in this field to each well, the cells were cultured in 5% incubator for 24 hours at 37° C., then the different concentration compounds and controls were added to each well. It should be noted that the added volume is not more than 0.5% of total volume. After completion of addition, the cells continued being cultured in incubator for one week, the culture medium was removed and washed by cold PBS of 1 mL once, and then fixed for 10 minutes at room temperature with 1% formalin, followed by wash with PBS of 1 mL. After fixation, stain was carried out with 0.1% crystal violet for 30 minutes. 0.1% crystal violet was recycled. The stained cells were washed gently with deionized water, dried at room temperature and kepted. The inhibition rate was calculated according to the foiling equation. The controls are Selumetinib (AZD6244), Gefitinib, Cisplatin. Inhibition rate=number of left cells each treatment/number of left cells of untreated control×100%

Experiment [2] has as its system lung cancer cell line H520. The experiment in a line: In vitro cell inhibition assay (crystal violet), lung cancer H520. In kind it is cell-based, human.
Text: as §1, §2, §3

The test system of experiment [3] is lung cancer cell line A549. The experiment in a line: In vitro cell inhibition assay (crystal violet), lung cancer A549. In kind it is cell-based, human.
Text: as §1, §2, §3

The subject of experiment [4] is human leukemia HL-60 cells. In words: Proliferation inhibition of human leukemia HL-60 cells, MTT method. Format: cell-based. Conditions: 48 h incubation, OPTI-MEM medium. As to the method:
The inhibition rate of human leukemia HL-60 cells was evaluated by regular MTT method. The human leukemia HL-60 cells were picked up from cell incubator, after washed for twice using PBS, cells were digested by 0.25% trypsin, and then add medium to terminate the digestion. After cells were collected using centrifuge and re-suspended, counting cells under inverted microscope and adding medium to make a density which was 5×10^4 cells/mL. After 100 μL aliquots were added to each well of 96-well microtiter plates, cells were cultured in 5% incubator for overnight at 37° C., then the different concentration compounds were added to each well. After incubation for 48 h, MTT solution was added to each well and plates were then incubated for 4 h. The MTT tetrazolium was reduced to formazan by living cells. Then the formazan crystals were dissolved though adding DMSO to each well. The absorbance was read at 570 nm with a microplate reader.
For orientation: Tetrazolium dyes change colour on reduction, which living cells bring about.

As for `CCCCCCc1c(C)c2ccc(OCc3ccccc3C(=COC)C(=O)OC)cc2oc1=O` [28-75], the “Inhibition rate on human cancer cells” value is given as 70% in experiment [1] (H460, 1.0 μM); 90% in experiment [1] (H460, 2.5 μM); 95% in experiment [1] (H460, 5.0 μM); 80% in experiment [2] (H520, 2.5 μM); 100% in experiment [2] (H520, 5.0 μM); 90% in experiment [3] (A549, 5.0 μM).

Turning to `CCc1cc(=O)oc2cc(OCc3ccccc3C(=COC)C(=O)OC)ccc12` [28-33], the “Inhibition rate on human cancer cells” value in experiment [1] (H460, 1.0 μM) turned out to be 90%; in experiment [1] (H460, 2.5 μM) it was 95%; in experiment [1] (H460, 5.0 μM), 95%; in experiment [2] (H520, 2.5 μM), 90%; in experiment [2] (H520, 5.0 μM), 100%; in experiment [3] (A549, 1.0 μM), 80%. For the same compound, the “Inhibition rate on human cancer cells” value in experiment [3] (A549, 2.5 μM) amounted to 95%; in experiment [3] (A549, 5.0 μM), 99%.

As to `COC=C(C(=O)OC)c1ccccc1COc1ccc2c(-c3cccc(Cl)c3)cc(=O)oc2c1` [28-133], the “Inhibition rate on human cancer cells” value in experiment [3] (A549, 2.5 μM) worked out at 100%; in experiment [3] (A549, 5.0 μM), 100%.

For `COC=C(C(=O)OC)c1ccccc1COc1ccc2c3c(c(=O)oc2c1C)CCC3` [28-126], the “Inhibition rate on human cancer cells” value in experiment [1] (H460, 2.5 μM) was found to be 90%; in experiment [1] (H460, 5.0 μM), 95%; in experiment [2] (H520, 1.0 μM) it was 70%; in experiment [2] (H520, 2.5 μM) it was 90%; in experiment [2] (H520, 5.0 μM) it was 95%; in experiment [3] (A549, 2.5 μM), 85%. The “Inhibition rate on human cancer cells” value in experiment [3] (A549, 5.0 μM) stood at 90%.

As for `COC=C(C(=O)OC)c1ccccc1COc1ccc2c(C)cc(=O)oc2c1C` [Compound 28-3], the “Proliferation inhibitory effect on human leukemia HL-60 cell (%)” value (“Proliferation inhibitory effect … (%)” below) in experiment [4] (concentration 1 μM) is 4.1%; in experiment [4] (concentration 10 μM), 33.4%; in experiment [4] (concentration 100 μM), 58.8%.

With `CCc1c(C)c2ccc(OCc3ccccc3C(=COC)C(=O)OC)cc2oc1=O` [Compound 28-18], the “Inhibition rate on human cancer cells” value is 80% in experiment [1] (H460, 0.25 μM); 90% in experiment [1] (H460, 0.5 μM); 95% in experiment [1] (H460, 1.0 μM); 95% in experiment [1] (H460, 2.5 μM); 95% in experiment [1] (H460, 5.0 μM); 50% in experiment [2] (H520, 0.25 μM). The “Inhibition rate on human cancer cells” value in experiment [2] (H520, 0.5 μM) came to 95%; in experiment [2] (H520, 1.0 μM), 100%; in experiment [2] (H520, 2.5 μM), 100%; in experiment [2] (H520, 5.0 μM), 100%; in experiment [3] (A549, 0.5 μM), 90%; in experiment [3] (A549, 1.0 μM), 100%. Besides, the “Inhibition rate on human cancer cells” value in experiment [3] (A549, 2.5 μM) came to 100%; in experiment [3] (A549, 5.0 μM) it was 100%.

Regarding `COC=C(C(=O)OC)c1ccccc1COc1ccc2c(-c3ccccc3Cl)cc(=O)oc2c1` [28-132], in experiment [3] (A549, 5.0 μM), the “Inhibition rate on human cancer cells” value is 90%.

`COC=C(C(=O)OC)c1ccccc1COc1ccc2c(-c3ccc(C(F)(F)F)cc3)cc(=O)oc2c1` [28-41]: the “Inhibition rate on human cancer cells” value is listed as 75% in experiment [1] (H460, 2.5 μM); 85% in experiment [1] (H460, 5.0 μM); 70% in experiment [2] (H520, 5.0 μM).

Turning to `CCCc1cc(=O)oc2cc(OCc3ccccc3C(=COC)C(=O)OC)ccc12` [28-34], the “Inhibition rate on human cancer cells” value in experiment [1] (H460, 1.0 μM) worked out at 93%; in experiment [1] (H460, 2.5 μM), 95%; in experiment [1] (H460, 5.0 μM), 95%; in experiment [2] (H520, 0.5 μM) it was 70%; in experiment [2] (H520, 1.0 μM) it was 99%; in experiment [2] (H520, 2.5 μM), 100%. Also, the “Inhibition rate on human cancer cells” value in experiment [2] (H520, 5.0 μM) was 100%; in experiment [3] (A549, 1.0 μM), 90%; in experiment [3] (A549, 2.5 μM), 95%; in experiment [3] (A549, 5.0 μM) it was 100%.

`CCCc1c(CCC)c2ccc(OCc3ccccc3C(=COC)C(=O)OC)cc2oc1=O` [Compound 28-79]: the figures for the “Proliferation inhibitory effect … (%)” value in experiment [4] (concentration 1 μM), in experiment [4] (concentration 10 μM) and in experiment [4] (concentration 100 μM) were 28.8%, 53.1% and 71.2%, respectively.

Turning to `COC=C(C(=O)OC)c1ccccc1COc1ccc2c(-c3ccc(OC)cc3)cc(=O)oc2c1` [28-137], the “Inhibition rate on human cancer cells” value is 100% in experiment [3] (A549, 2.5 μM) and 100% in experiment [3] (A549, 5.0 μM).

Turning to `COC=C(C(=O)OC)c1ccccc1COc1ccc2cc(C#N)c(=O)oc2c1` [Compound 28-24], the figures for the “Proliferation inhibitory effect … (%)” value in experiment [4] (concentration 1 μM), in experiment [4] (concentration 10 μM) and in experiment [4] (concentration 100 μM) were 10.8%, 44.5% and 86.7%, respectively.

As for `COC=C(C(=O)OC)c1ccccc1COc1ccc2c(-c3ccc(Br)cc3)cc(=O)oc2c1` [28-134], the “Inhibition rate on human cancer cells” value in experiment [3] (A549, 2.5 μM) is listed as 100%; in experiment [3] (A549, 5.0 μM), 100%.

With `COC=C(C(=O)OC)c1ccccc1COc1ccc2c(-c3ccccc3)cc(=O)oc2c1` [28-52], the “Inhibition rate on human cancer cells” value in experiment [1] (H460, 0.25 μM) came out at 60%; in experiment [1] (H460, 0.5 μM), 90%; in experiment [1] (H460, 1.0 μM), 100%; in experiment [1] (H460, 2.5 μM), 100%; in experiment [1] (H460, 5.0 μM), 100%; in experiment [2] (H520, 0.25 μM) it was 70%. Moreover, the “Inhibition rate on human cancer cells” value in experiment [2] (H520, 0.5 μM) was found to be 100%; in experiment [2] (H520, 1.0 μM), 100%; in experiment [2] (H520, 2.5 μM), 100%; in experiment [2] (H520, 5.0 μM) it was 100%; in experiment [3] (A549, 0.5 μM), 90%; in experiment [3] (A549, 1.0 μM) it was 95%. Besides, the “Inhibition rate on human cancer cells” value turned out to be 100% in experiment [3] (A549, 2.5 μM) and 100% in experiment [3] (A549, 5.0 μM).

As for `COC=C(C(=O)OC)c1ccccc1COc1ccc2c(C)c(Cc3ccccc3)c(=O)oc2c1` [Compound 28-68], the results for the “Proliferation inhibitory effect … (%)” value in experiment [4] (concentration 1 μM), in experiment [4] (concentration 10 μM) and in experiment [4] (concentration 100 μM) were 54.6%, 62.0% and 84.4%, respectively.

As to `COC=C(C(=O)OC)c1ccccc1COc1ccc2c(-c3ccc(F)cc3)cc(=O)oc2c1` [Compound 28-38], the entries for the “Proliferation inhibitory effect … (%)” value in experiment [4] (concentration 1 μM), in experiment [4] (concentration 10 μM) and in experiment [4] (concentration 100 μM) were 77.5%, 72.9% and 63.7%, respectively.

`COC=C(C(=O)OC)c1ccccc1COc1ccc2c(-c3ccc(C)cc3)cc(=O)oc2c1` [28-136]: the “Inhibition rate on human cancer cells” value in experiment [3] (A549, 2.5 μM) was 100%; in experiment [3] (A549, 5.0 μM) it was 100%.

Regarding `COC=C(C(=O)OC)c1ccccc1COc1ccc2c(C)c(C)c(=O)oc2c1C` [Compound 28-6], the entries for the “Proliferation inhibitory effect … (%)” value in experiment [4] (concentration 1 μM), in experiment [4] (concentration 10 μM) and in experiment [4] (concentration 100 μM) were 48.2%, 53.0% and 52.0%, respectively.

On to `COC=C(C(=O)OC)c1ccccc1COc1ccc2c(C)c(Cl)c(=O)oc2c1` [28-12], for which the “Inhibition rate on human cancer cells” value in experiment [1] (H460, 1.0 μM) was 75%; in experiment [1] (H460, 2.5 μM), 90%; in experiment [1] (H460, 5.0 μM) it was 95%; in experiment [2] (H520, 1.0 μM) it was 50%; in experiment [2] (H520, 2.5 μM) it was 100%; in experiment [2] (H520, 5.0 μM), 100%. In addition, the “Inhibition rate on human cancer cells” value was determined as 80% in experiment [3] (A549, 1.0 μM); 95% in experiment [3] (A549, 2.5 μM); 100% in experiment [3] (A549, 5.0 μM).

On to `COC=C(C(=O)OC)c1ccccc1COc1ccc2c(-c3ccc(Cl)cc3)cc(=O)oc2c1` [28-29], for which the “Inhibition rate on human cancer cells” value in experiment [1] (H460, 1.0 μM) turned out to be 70%; in experiment [1] (H460, 2.5 μM) it was 90%; in experiment [1] (H460, 5.0 μM) it was 95%; in experiment [2] (H520, 0.25 μM) it was 30%; in experiment [2] (H520, 0.5 μM) it was 40%; in experiment [2] (H520, 1.0 μM), 70%. Also, the “Inhibition rate on human cancer cells” value in experiment [2] (H520, 2.5 μM) came out at 70%; in experiment [2] (H520, 5.0 μM), 100%; in experiment [3] (A549, 5.0 μM), 95%.

As for `COC=C(C(=O)OC)c1ccccc1COc1ccc2c(-c3ccc(C#N)cc3)cc(=O)oc2c1` [28-135], in experiment [3] (A549, 5.0 μM), the “Inhibition rate on human cancer cells” value stood at 80%.
